# Data taken from patent US6297268A, “Imidazoles as cholesterol lowering agents” (Schering Corporation, priority 1999, dated 2001).
# Tests used:
# [1] = tested on: serum cholesterol; experiment: Cholesterol lowering properties of the compound of Formula II in rats: serum cholesterol; assay type: in vivo, rat (Crl:CD(SD)BR VAF/Plus); conditions: for Group Mean Serum Cholesterol: single daily oral doses (gavage), at necropsy after 15-16 doses; for serum cholesterol (result in words): oral
# Method: (§1) A homogeneous suspension of the compound of Formula II in aqueous methyl cellulose (aqueous methyl cellulose concentration: 0.4 percent weight/volume) was prepared for these studies and stored at ambient temperature conditions. The amount of the suspension fed to each rat was calculated to provide the desired dosage of the compound of Formula II (see below) for that rat.
# (§2) Six-week-old rats (Rat/Crl:CD®(SD)BR VAF/Plus®, supplied by Charles River Laboratories, Kingston, N.Y.; ten rats per sex per group) were given single daily oral doses (via gavage tube) of the compound of Formula II (30, 100 or 300 mg/kg of body weight of the rat) as the above-stated suspension for 15 to 16 days. […] The rats were housed individually in suspended stainless steel wire mesh cages and were fed with a meal of Certified Rodent Diet® 5002 available from PMI® Feeds, Incorporated, St. Louis, Mo. Tap water was provided ad libitum during the study period. Blood was collected at necropsy over two days (after 15-16 doses), and serum chemistry parameters were measured.
# (§3) The results obtained at necropsy (after 15-16 doses) are given in Table 1 for both the male and female rats: […]
# [2] = tested on: serum triglyceride; experiment: Cholesterol lowering properties of the compound of Formula II in rats: serum triglycerides; assay type: in vivo, rat (Crl:CD(SD)BR VAF/Plus); conditions: for Group Mean Serum Triglyceride Concentrations: single daily oral doses (gavage)
# Method: as §1, §2, §3
# [3] = tested on: serum cholesterol; experiment: Cholesterol lowering properties of the compound of Formula II in monkeys: serum cholesterol; assay type: in vivo, cynomolgus monkey (Macaca fascicularis); conditions: for % change in group mean serum cholesterol from last pretest to after 14 doses: daily oral (gavage), 22 hours after 14th dose
# Method: Similar to Example 2, a homogeneous suspension of the compound of Formula II in aqueous methyl cellulose (0.4 percent weight/volume) was prepared for these studies and stored at ambient temperature conditions. The amount of the suspension fed to each monkey was calculated to provide the desired dosage of the compound of Formula II (given below) for that monkey.
# (§4) Adult cynomolgus monkeys (four per sex per group, Macaca fascicularis monkey, supplied by Charles River BRF Incorporated, Houston, Tex.) were given single daily oral doses (gavage) of the compound of Formula II (30, 100 or 300 mg/kg of body weight) in the form of the above-stated suspension for 16 to 18 days. […] The monkeys were fed with nutritionally adequate amounts of PMI Inc. Certified Primate Diet® #46 (available from PMI Feeds, Incorporated) daily, at least one hour after dosing was completed. Certified monkey treats were offered daily. Tap water was provided ad libitum. Blood was collected and serum chemistry parameters were measured twice pretest and after 14 daily doses (22 hours after the 14th dose).
# Mild to moderate decreases in serum cholesterol, compared with pretest and concurrent and/or historical control data, occurred in all dosed monkeys. The decreases were generally dose-dependent, except that there was no real difference between mid- and high-dose females.
# [4] = Plasma analysis to confirm absorption in rats; assay type: in vivo, rat (Crl:CD(SD)BR VAF/Plus); conditions: oral, plasma analysis after one and 14 doses
# Method: Six-week-old rats (Rat/Crl:CD®(SD)BR VAF/Plus®, supplied by Charles River Laboratories, Kingston, N.Y.; ten rats per sex per group) were given single daily oral doses (via gavage tube) of the compound of Formula II (30, 100 or 300 mg/kg of body weight of the rat) as the above-stated suspension for 15 to 16 days. […] The rats were housed individually in suspended stainless steel wire mesh cages and were fed with a meal of Certified Rodent Diet® 5002 available from PMI® Feeds, Incorporated, St. Louis, Mo. Tap water was provided ad libitum during the study period. […]
# [5] = Plasma levels and pharmacokinetics in monkeys; assay type: in vivo, cynomolgus monkey (Macaca fascicularis); conditions: oral, plasma levels after one and 16 doses
# Method: as §4
smiles,measurement,setting,value
O=C(NCc1ccc(Cc2c[nH]cn2)cc1)Nc1cc(Cl)cc(Cl)c1 [compound of Formula II],Group Mean Serum Cholesterol,"[1]; female rats, 30 mg/kg, control 29.7",26.5 mg/dL
same,Group Mean Serum Cholesterol,"[1]; female rats, 100 mg/kg, control 29.7",19.4 mg/dL
same,Group Mean Serum Cholesterol,"[1]; female rats, 300 mg/kg, control 29.7",16.0 mg/dL
same,serum cholesterol (result in words),"[1]; female rats, 100 or 300 mg/kg, compared with concurrent control",Lower serum cholesterol concentrations
same,Group Mean Serum Cholesterol,"[1]; male rats, 30 mg/kg, control 34.7",20.9 mg/dL
same,Group Mean Serum Cholesterol,"[1]; male rats, 100 mg/kg, control 34.7",16.9 mg/dL
same,Group Mean Serum Cholesterol,"[1]; male rats, 300 mg/kg, control 34.7",12.3 mg/dL
same,serum cholesterol (result in words),"[1]; male rats, 30, 100 or 300 mg/kg",dose-dependent lower serum cholesterol
same,Group Mean Serum Triglyceride Concentrations,"[2]; female rats, 30 mg/kg, at necropsy after 15-16 doses, control 22.4",20.5 mg/dL
same,Group Mean Serum Triglyceride Concentrations,"[2]; female rats, 100 mg/kg, after 15-16 doses, control 22.4, *group mean excludes individuals with values <10, actual mean would be lower",13.6 mg/dL
same,Group Mean Serum Triglyceride Concentrations,"[2]; female rats, 300 mg/kg, after 15-16 doses, control 22.4, *group mean excludes individuals with values <10, actual mean would be lower",16.3 mg/dL
same,serum triglyceride (result in words),"[2]; male and female rats, 100 or 300 mg/kg, oral",Lower serum triglyceride concentrations
same,Group Mean Serum Triglyceride Concentrations,"[2]; male rats, 30 mg/kg, at necropsy after 15-16 doses, control 40.7",37.2 mg/dL
same,Group Mean Serum Triglyceride Concentrations,"[2]; male rats, 100 mg/kg, at necropsy after 15-16 doses, control 40.7",27.8 mg/dL
same,Group Mean Serum Triglyceride Concentrations,"[2]; male rats, 300 mg/kg, at necropsy after 15-16 doses, control 40.7",21.2 mg/dL
same,cholesterol (result in words),"[3]; all monkeys dosed with 30, 100 or 300 mg/kg, oral",mildly to moderately decreased cholesterol
same,% change in group mean serum cholesterol from last pretest to after 14 doses,"[3]; female monkeys, 30 mg/kg, control -03",-24%
same,% change in group mean serum cholesterol from last pretest to after 14 doses,"[3]; female monkeys, 100 mg/kg, control -03, *n=3, excludes No. 22F, sacrificed on Day 9",-63%
same,% change in group mean serum cholesterol from last pretest to after 14 doses,"[3]; female monkeys, 300 mg/kg, control -03",-59%
same,% change in group mean serum cholesterol from last pretest to after 14 doses,"[3]; male monkeys, 30 mg/kg, control +02",-25%
same,% change in group mean serum cholesterol from last pretest to after 14 doses,"[3]; male monkeys, 100 mg/kg, control +02",-46%
same,% change in group mean serum cholesterol from last pretest to after 14 doses,"[3]; male monkeys, 300 mg/kg, control +02",-61%
same,absorption (result in words),[4],confirm absorption
same,absorption (result in words),[5],confirm absorption
